Experiments:
[1] = Hepatocytes stability assay (human hepatocytes); type: in vitro ADME; conditions: both sexes, cryopreserved hepatocytes, 1 μM test compound, 1×10^6 cell/mL, read-out: CLint (μL/min/million cells)
Experimental: (§1) In vitro metabolic stability was assessed using cryopreserved hepatocytes from male Sprague Dawley rats and a pool of 50 mixed gender humans (BioIVT, Baltimore, MD). The incubation mixtures were prepared by mixing 250 μL of pre-warmed KHB (Krebs-Henseleit buffer) containing 2×10^6 cell/mL of hepatocytes with 250 μL of pre-warmed KHB buffer containing 2 μM of test compounds in a 48-well plate, giving a final concentration of 1 μM test compound (0.1% DMSO) and 1×10^6 cell/mL of hepatocytes. The reaction mixture was incubated at 37 degrees C. A 50 μL aliquot of incubation mixture was taken at time points (0, 15, 30, 60, 120 and 240 minutes) and transferred into a 96-well plate containing 300 μL ice-cold acetonitrile (containing 30 ng/mL of labetalol and 10 ng/mL of Naltrexone-d3 as internal standards) and immediately placed in ice to terminate the reaction. Samples were centrifuged, and supernatants were transferred into 96-well plates for liquid chromatography with tandem mass spectrometry (LC-MS/MS) analysis to monitor the depletion of the test compound. Data was calculated as percent remaining by assuming zero-minute time point peak area ratio (analyte/IS) as 100% and dividing remaining time point peak area ratios by zero-minute time point peak area ratio. Data were fitted to a first-order decay model to determine half-life. From a plot of log (ln) peak area against time, the slope of the line was determined. Subsequently, half-life (T1/2) and intrinsic clearance (CLint) were calculated using the equations below: • Elimination rate constant (k)=(−slope) • Half-life (T1/2) min=0.693/k • Intrinsic Clearance (CLint) (mL/min/million cells)=(V×0.693)/T1/2 • V=incubation volume mL/number of cells The in vitro T1/2 was converted to in vitro intrinsic clearance (CLint,hep) in units of mL/min/kg using the formula shown below: The in vitro intrinsic clearance (CLint,hep) was scaled to in vivo hepatic clearance (CL,hep) using the following equation which was adapted from a well-stirred model. [formula] where Q is the liver blood flow and fu is the fraction unbound (assumed to be unity in this case). All parameters used in the calculation are shown below (Table 4). The extraction ratio (ER) was calculated by dividing the hepatic clearance of a compound to the liver blood flow. The data reported in Table 5 were obtained according to the human hepatocytes stability assay described above.

human hepatocytes = experiment: Hepatocytes stability assay (human hepatocytes); type: in vitro ADME; conditions: hepatic clearance divided by liver blood flow, fu assumed unity
Experimental: as §1

MDR1 = experiment: MDCK-MDR1 permeability assay; type: in vitro ADME; conditions: dog, 3 μM test compound; for efflux ratio at 2 h, 3 μM: Papp (B→A) divided by Papp (A→B), read-out: Efflux ratio (ER); for Papp A→B at 2 h, 3 μM: apical to basolateral, 2 hours at 37 degrees C
Experimental: The bidirectional permeability (Apical to Basal and Basal to Apical directions) of test compounds in MDCK-MDR1 cells were evaluated using MDCK-MDR1 cells seeded in Solvo PreadyPort™ MDCK 96-well plate. Once the plate was received from ReadyCell (Barcelona, Spain), it was treated as per PreadyPort™ user's manual.
For the Apical to Basolateral (A→B) permeability, 80 μL of test compound (3 μM) co-dosed with LY (Lucifer Yellow) (100 μM) in HBSS (Hank's Balanced Salt Solution) assay buffer was added to the donor side (A) while 250 μL of HBSS buffer was added to the receiver side (B). For the Basolateral to Apical (B→A) permeability, 255 μL of test compound (3 μM) in HBSS assay buffer was added to the donor side (B) while 75 μL of HBSS buffer containing LY (100 μM) was added to the receiver side (A).
The plate was placed in an incubator set at 37 degrees C. After 10 minutes of pre-warming, 5 μL aliquot was taken from donor compartment and set aside as the dosing solution. The MDCK-MDR1 incubation plate was placed back into the incubator for 2 hours of incubation at 37 degrees C. After 2 hours of incubation, 25 μL and 5 μL aliquots were removed from the receiver and donor sides, respectively. To the 5 μL aliquots taken from the donor sides (before and after a 2-hour incubation) were diluted with 20 μL of the HBSS buffer. All samples were mixed with 150 μL with acetonitrile containing internal standard (IS) and 200 μL water, and analyzed by LC-MS/MS.
The apparent permeability (Papp) was calculated using the following formula: Papp=dQ/dt×1/A×C0 where: • dQ/dt: amount of translocated material over incubation time (nmol/s) • A: area of insert (0.14 cm^2 for PreadyPort™ MDR1-96) • C0: initial concentration of product applied in apical (A→B) or basal (B→A) compartment (nmol/mL).
The efflux ratio (ER) was measured by dividing the Papp (basolateral to apical direction) by Papp (apical to basolateral direction). It is a general measure of the involvement of active processes. An ER >2 is considered positive for active transport.
The data reported in Table 3 were obtained according to the MDCK-MDR1 permeability assay described above.

[2] = target: T1, human orexin-2 receptor (OX2R) (Homo sapiens, UniProt O43614); experiment: Human OX2R IP1 assay; type: cell-based; conditions: T-Rex CHO cells stably overexpressing human OX2R; IP1 accumulation, 1 hr at 37 degrees C
T1 construct: expressed in transfected cells
T1 sequence (O43614 1-444): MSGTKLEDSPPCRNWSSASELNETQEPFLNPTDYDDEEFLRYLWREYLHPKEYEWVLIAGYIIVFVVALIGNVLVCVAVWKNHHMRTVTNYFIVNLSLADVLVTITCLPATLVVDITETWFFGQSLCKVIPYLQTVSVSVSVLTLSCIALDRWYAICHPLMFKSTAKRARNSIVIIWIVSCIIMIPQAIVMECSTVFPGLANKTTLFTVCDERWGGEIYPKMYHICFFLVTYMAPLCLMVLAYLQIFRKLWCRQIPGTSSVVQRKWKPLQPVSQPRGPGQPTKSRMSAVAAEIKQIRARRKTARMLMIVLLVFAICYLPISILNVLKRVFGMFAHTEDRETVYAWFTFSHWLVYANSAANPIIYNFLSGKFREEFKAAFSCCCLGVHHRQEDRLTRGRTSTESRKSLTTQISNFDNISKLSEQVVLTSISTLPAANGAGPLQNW
Experimental: T-Rex CHO cells stably overexpressing the human orexin-2 receptor (OX2R) were induced overnight with 1 μg/mL of doxycycline in a T225 flask. 24 hours post induction, cells were lifted with accutase and plated into a 384-well proxy plate at 30,000 cells/well. Cells were then treated with different test compounds in 1× stimulation buffer containing 10 mM Hepes, 1 mM CaCl2), 0.5 mM MgCl2, 4.2 mM KCl, 146 mM NaCl, 5.5 mM glucose, and 50 mM LiCl, pH 7.4, for 1 hr at 37 degrees C. Following incubation, the reaction was terminated by the addition of detection mix, which is composed of IP1-d2 and anti-IP1-cryptate diluted in lysis buffer as well as 1× stimulation buffer. The plates were allowed to incubate for 1 hour at room temperature and were then read in the EnVision® multimode plate reader, measuring inositol phosphate levels.
Cisbio IP1 is a cell-based functional assay quantifying the accumulation of inositol monophosphate (IP), a metabolite released as a result of orexin 2 receptor activation through the phospholipase C-Gq signaling pathway. This is a competitive immunoassay in which the IP1 produced by the cells upon receptor activation competes with the IP1 analog coupled to the d2 fluorophore (acceptor) for binding to an anti-IP1 monoclonal antibody labeled with Eu cryptate (donor). The measured HTRF-FRET based signal is inversely proportional to the IP1 concentration produced.
The EC50 values reported in Table 2 were obtained according to the human OX2R IP1 assay described above. Data are the mean EC50 values±S.E.M. The compound methyl (2R,3S)-3-((methylsulfonyl)amino)-2-(((cis-4-phenylcyclohexyl)oxy)methyl)-piperidine-1-carboxylate (sometimes referred to herein as Reference Compound A) is a reference compound which is disclosed in Example 5 of PCT publication no. WO2017/135306.

CS(=O)(=O)N[C@H]1CCN(c2ccccn2)CC1COC1CCN(c2ncccn2)CC1 (some centres unmarked) [Compound 1]
hepatocyte CLint at 1 μM [1]: 31 µL/min/1e6 cells
Extraction Ratio (ER) (human hepatocytes): 0.82
efflux ratio at 2 h, 3 μM (MDR1): 12
Papp A→B at 2 h, 3 μM (MDR1): 2.7 ×10⁻⁶ cm/s
EC50 [2]: > 1000 nM

CS(=O)(=O)N[C@H]1CCN(c2ncccc2C(F)(F)F)CC1COC1CCC(c2ccccc2)CC1 (some centres unmarked) [Compound 28]
hepatocyte CLint at 1 μM [1]: 154 µL/min/1e6 cells
Extraction Ratio (ER) (human hepatocytes): 0.96
efflux ratio at 2 h, 3 μM (MDR1): > 3.4
Papp A→B at 2 h, 3 μM (MDR1): < 1.2 ×10⁻⁶ cm/s

C[C@@]1(COC2CCC(c3ccccc3)CC2)CN(c2ccccn2)CC[C@@H]1NS(C)(=O)=O (some centres unmarked) [Compound 29]
hepatocyte CLint at 1 μM [1]: 30 µL/min/1e6 cells
Extraction Ratio (ER) (human hepatocytes): 0.82
efflux ratio at 2 h, 3 μM (MDR1): > 17
Papp A→B at 2 h, 3 μM (MDR1): < 0.42 ×10⁻⁶ cm/s

CS(=O)(=O)N[C@H]1CCN(c2ccccn2)CC1COC1CCC(c2ccccc2O)CC1 (some centres unmarked) [Compound 30]
hepatocyte CLint at 1 μM [1]: 45 µL/min/1e6 cells
Extraction Ratio (ER) (human hepatocytes): 0.87
efflux ratio at 2 h, 3 μM (MDR1): 28
Papp A→B at 2 h, 3 μM (MDR1): 0.7 ×10⁻⁶ cm/s

CS(=O)(=O)N[C@H]1CCN(c2ccccn2)CC1COC1CCC(c2cccc(O)c2)CC1 (some centres unmarked) [Compound 31]
hepatocyte CLint at 1 μM [1]: 81 µL/min/1e6 cells
Extraction Ratio (ER) (human hepatocytes): 0.92
efflux ratio at 2 h, 3 μM (MDR1): 18
Papp A→B at 2 h, 3 μM (MDR1): 1 ×10⁻⁶ cm/s

CS(=O)(=O)N[C@H]1CCN(c2ccccn2)CC1COC1CCC(c2ccc(O)cc2)CC1 (some centres unmarked) [Compound 32]
hepatocyte CLint at 1 μM [1]: 110 µL/min/1e6 cells
Extraction Ratio (ER) (human hepatocytes): 0.94
efflux ratio at 2 h, 3 μM (MDR1): 34
Papp A→B at 2 h, 3 μM (MDR1): 0.41 ×10⁻⁶ cm/s

CS(=O)(=O)N[C@H]1CCN(c2ccccn2)CC1COC1CCC(c2cccc(C(F)(F)F)c2)CC1 (some centres unmarked) [Compound 33]
hepatocyte CLint at 1 μM [1]: 79 µL/min/1e6 cells
Extraction Ratio (ER) (human hepatocytes): 0.92
efflux ratio at 2 h, 3 μM (MDR1): 15
Papp A→B at 2 h, 3 μM (MDR1): 0.07 ×10⁻⁶ cm/s

CS(=O)(=O)N[C@H]1CCN(c2ccccn2)CC1COC1CCC(c2cccc(C#N)c2)CC1 (some centres unmarked) [Compound 35]
hepatocyte CLint at 1 μM [1]: 102 µL/min/1e6 cells
Extraction Ratio (ER) (human hepatocytes): 0.94
efflux ratio at 2 h, 3 μM (MDR1): 12
Papp A→B at 2 h, 3 μM (MDR1): 1.3 ×10⁻⁶ cm/s

CS(=O)(=O)N[C@H]1CCN(Cc2ccccc2)CC1COC1CCC(c2ccccc2)CC1 (some centres unmarked) [Compound 36]
hepatocyte CLint at 1 μM [1]: 58 µL/min/1e6 cells
Extraction Ratio (ER) (human hepatocytes): 0.90
efflux ratio at 2 h, 3 μM (MDR1): > 12
Papp A→B at 2 h, 3 μM (MDR1): < 0.21 ×10⁻⁶ cm/s

CS(=O)(=O)N[C@H]1CCN(Cc2ccccn2)CC1COC1CCC(c2ccccc2)CC1 (some centres unmarked) [Compound 39]
hepatocyte CLint at 1 μM [1]: 59 µL/min/1e6 cells
Extraction Ratio (ER) (human hepatocytes): 0.90
efflux ratio at 2 h, 3 μM (MDR1): 15
Papp A→B at 2 h, 3 μM (MDR1): 1.4 ×10⁻⁶ cm/s

CS(=O)(=O)N[C@H]1CCN(Cc2cccnc2)CC1COC1CCC(c2ccccc2)CC1 (some centres unmarked) [Compound 40]
hepatocyte CLint at 1 μM [1]: 86 µL/min/1e6 cells
Extraction Ratio (ER) (human hepatocytes): 0.93
efflux ratio at 2 h, 3 μM (MDR1): 8.2
Papp A→B at 2 h, 3 μM (MDR1): 1.3 ×10⁻⁶ cm/s

CS(=O)(=O)N[C@H]1CCN(Cc2ccncc2)CC1COC1CCC(c2ccccc2)CC1 (some centres unmarked) [Compound 41]
hepatocyte CLint at 1 μM [1]: 107 µL/min/1e6 cells
Extraction Ratio (ER) (human hepatocytes): 0.94
efflux ratio at 2 h, 3 μM (MDR1): 16
Papp A→B at 2 h, 3 μM (MDR1): 1.7 ×10⁻⁶ cm/s

CS(=O)(=O)N[C@H]1CCN(c2cccc3ccnn23)CC1COC1CCC(c2ccccc2)CC1 (some centres unmarked) [Compound 42]
hepatocyte CLint at 1 μM [1]: 100 µL/min/1e6 cells
Extraction Ratio (ER) (human hepatocytes): 0.94
efflux ratio at 2 h, 3 μM (MDR1): 2.9
Papp A→B at 2 h, 3 μM (MDR1): 0.86 ×10⁻⁶ cm/s

CS(=O)(=O)N[C@H]1CCN(c2cccc3ncnn23)CC1COC1CCC(c2ccccc2)CC1 (some centres unmarked) [Compound 43]
hepatocyte CLint at 1 μM [1]: 102 µL/min/1e6 cells
Extraction Ratio (ER) (human hepatocytes): 0.94
efflux ratio at 2 h, 3 μM (MDR1): 8.8
Papp A→B at 2 h, 3 μM (MDR1): 2.4 ×10⁻⁶ cm/s

CS(=O)(=O)N[C@H]1CCN(c2nccc3ncnn23)CC1COC1CCC(c2ccccc2)CC1 (some centres unmarked) [Compound 44]
hepatocyte CLint at 1 μM [1]: 133 µL/min/1e6 cells
Extraction Ratio (ER) (human hepatocytes): 0.95
efflux ratio at 2 h, 3 μM (MDR1): 6.4
Papp A→B at 2 h, 3 μM (MDR1): 3 ×10⁻⁶ cm/s

CS(=O)(=O)N[C@H]1CCN(c2nccc3ocnc23)CC1COC1CCC(c2ccccc2)CC1 (some centres unmarked) [Compound 45]
hepatocyte CLint at 1 μM [1]: 103 µL/min/1e6 cells
Extraction Ratio (ER) (human hepatocytes): 0.94
efflux ratio at 2 h, 3 μM (MDR1): 2.2
Papp A→B at 2 h, 3 μM (MDR1): 1.9 ×10⁻⁶ cm/s

Source: US12441710B2, “Substituted piperidino compounds and related methods of treatment” (Alkermes, Inc., priority 2020, dated 2025)
